Converted amounts (≈) assume the structure as drawn. The source made the active and inactive calls. No cut-off for these calls is given here.
How the values were obtained:
Staphylococcus aureus [1] = experiment: Antibacterial activity against methicillin-resistant Staphylococcus aureus 936 after 18 hrs by CLSI based broth microdilution method; format: functional; settings: Staphylococcus aureus, 936, 18 h
Escherichia coli [2] = experiment: Induction of outer membrane permeabilization in Escherichia coli ATCC 25922 measured up to 12 mins by NPN-dye based assay; format: organism-based
Klebsiella pneumoniae [3] = experiment: Potentiation of polymyxin B-induced antibacterial activity against Klebsiella pneumoniae ATCC 700603 assessed as FICI after 18 hrs by checker board assay; format: functional
Klebsiella pneumoniae [4] = experiment: Potentiation of rifampicin-induced antibacterial activity against Klebsiella pneumoniae ATCC 700603 assessed as FICI after 18 hrs by checker board assay; format: functional
Escherichia coli [5] = experiment: Induction of membrane disruption in Escherichia coli ATCC 25922 assessed as rough membrane surface at 4 times of MIC after 2 hrs by SEM analysis; format: functional, organism-based
Escherichia coli [6] = experiment: Induction of inner membrane permeabilization in Escherichia coli ATCC 43837 assessed as increase in ONPG release at 1 to 2 times of MIC by ONPG dye based assay; format: organism-based
Escherichia coli [7] = experiment: Antibiofilm activity against Escherichia coli ATCC 25922 after 24 hrs by crystal violet staining based assay; format: functional, organism-based
Bacillus subtilis = experiment: Antibacterial activity against Bacillus subtilis ATCC 23857 after 18 hrs by CLSI based broth microdilution method; format: functional; settings: ATCC 23857, 18 h
Staphylococcus aureus [8] = experiment: Ratio of antibacterial activity against Staphylococcus aureus ATCC 25923 in presence of NaCl to antibacterial activity against Staphylococcus aureus ATCC 25923; format: functional
Escherichia coli [9] = experiment: Ratio of antibacterial activity against Escherichia coli ATCC 25922 in presence of MgCl2 to antibacterial activity against Escherichia coli ATCC 25922; format: functional
Escherichia coli [10] = experiment: Induction of membrane disruption in Escherichia coli ATCC 25922 assessed as corrugated membrane surface at 4 times of MIC after 2 hrs by SEM analysis; format: functional, organism-based
Escherichia coli [11] = experiment: Ratio of MIC for Escherichia coli ATCC 25922 preincubated for 6 hrs in presence of 10% mouse serum and measured after 18 hrs to MIC for antibacterial activity against Escherichia coli ATCC 25922 after 18 hrs; format: functional
Escherichia coli [12] = experiment: Disruption of membrane integrity in Escherichia coli ATCC 25922 assessed as membrane damage by measuring PI fluorescence at 4 times of MIC incubated for 1 hr by PI dye based flow cytometric analysis (reference value: 1.35%); format: functional
Escherichia coli [13] = experiment: Induction of ROS generation in Escherichia coli ATCC 25922; format: functional, organism-based
Escherichia coli [14] = experiment: Antimicrobial activity against Escherichia coli ATCC 25922 at 1 mM preincubated for 6 hrs in presence of 2000 ug/ml trypsin and measured after 18 hrs by microplate reader analysis; format: functional, organism-based
Escherichia coli [15] = experiment: Potentiation of polymyxin B-induced antibacterial activity against Escherichia coli ATCC 25922 assessed as FICI after 18 hrs by checker board assay; format: functional
Escherichia coli [16] = experiment: Ratio of antibacterial activity against Escherichia coli ATCC 25922 in presence of FeCl3 to antibacterial activity against Escherichia coli ATCC 25922; format: functional
Escherichia coli [17] = experiment: Induction of membrane disruption in Escherichia coli ATCC 25922 assessed as degeneration in membrane at 4 times of MIC after 2 hrs by SEM analysis; format: functional, organism-based
Escherichia coli [18] = experiment: Antibacterial activity against Escherichia coli ATCC 43837 after 18 hrs by CLSI based broth microdilution method; format: functional; settings: ATCC 43837, 18 h
DNA = experiment: Binding affinity to Escherichia coli ATCC 25922 genomic DNA after 30 mins by agarose gel electrophoresis; format: nucleic-acid assay
Staphylococcus aureus [19] = experiment: Antibiofilm activity against Staphylococcus aureus ATCC 25923 after 24 hrs by crystal violet staining based assay; format: functional, organism-based
Pseudomonas aeruginosa [20] = experiment: Potentiation of polymyxin B-induced antibacterial activity against Pseudomonas aeruginosa ATCC 27853 assessed as FICI after 18 hrs by checker board assay; format: functional
[21] = Selectivity index, ratio of MHC10 for human RBC to geometric mean of peptide MIC for gram positive bacteria; format: toxicity; settings: human red blood cells, read-out: Selectivity Index
Staphylococcus aureus [22] = experiment: Antibacterial activity against Staphylococcus aureus ATCC 25923 after 18 hrs by CLSI based broth microdilution method; format: functional; settings: ATCC 25923, 18 h
Escherichia coli [23] = experiment: Antibiofilm activity against Escherichia coli ATCC 25922 at 2 times MIC after 24 hrs by crystal violet staining based assay; format: functional, organism-based
Staphylococcus aureus [24] = experiment: Ratio of antibacterial activity against Staphylococcus aureus ATCC 25923 in presence of MgCl2 to antibacterial activity against Staphylococcus aureus ATCC 25923; format: functional
Pseudomonas aeruginosa [25] = experiment: Antibiofilm activity against Pseudomonas aeruginosa ATCC 27853 after 24 hrs by crystal violet staining based assay; format: functional, organism-based
Pseudomonas aeruginosa [26] = experiment: Antibacterial activity against Pseudomonas aeruginosa ATCC 27853 after 18 hrs by CLSI based broth microdilution method; format: functional; settings: ATCC 27853, 18 h
Staphylococcus aureus [27] = experiment: Ratio of antibacterial activity against Staphylococcus aureus ATCC 25923 in presence of FeCl3 to antibacterial activity against Staphylococcus aureus ATCC 25923; format: functional
Escherichia coli [28] = experiment: Ratio of antibacterial activity against Escherichia coli ATCC 25922 in presence of KCl to antibacterial activity against Escherichia coli ATCC 25922; format: functional
Erythrocyte = experiment: Hemolytic activity in human RBC measured after 1 hr by microplate reader analysis; format: ADME, cell-based
Escherichia coli [29] = experiment: Induction of inner membrane permeabilization in Escherichia coli ATCC 43837 assessed as increase in ONPG release at 4 times of MIC by ONPG dye based assay; format: organism-based
Staphylococcus aureus [30] = experiment: Ratio of antibacterial activity against Staphylococcus aureus ATCC 25923 in presence of KCl to antibacterial activity against Staphylococcus aureus ATCC 25923; format: functional
Klebsiella pneumoniae [31] = experiment: Antibacterial activity against Klebsiella pneumoniae ATCC 700603 after 18 hrs by CLSI based broth microdilution method; format: functional; settings: Klebsiella pneumoniae, 700603, 18 h
Escherichia coli [32] = experiment: Antibacterial activity against Escherichia coli ATCC 25922 after 18 hrs by CLSI based broth microdilution method; format: functional; settings: ATCC 25922, 18 h
Escherichia coli [33] = experiment: Ratio of antibacterial activity against Escherichia coli ATCC 25922 in presence of NaCl to antibacterial activity against Escherichia coli ATCC 25922; format: functional
Escherichia coli [34] = experiment: Induction of membrane disruption in Escherichia coli ATCC 25922 assessed as fracture in membrane at 4 times of MIC after 2 hrs by SEM analysis; format: functional, organism-based
Pseudomonas aeruginosa [35] = experiment: Potentiation of rifampicin-induced antibacterial activity against Pseudomonas aeruginosa ATCC 27853 assessed as FICI after 18 hrs by checker board assay; format: functional
Escherichia coli [36] = experiment: Potentiation of rifampicin-induced antibacterial activity against Escherichia coli ATCC 25922 assessed as FICI after 18 hrs by checker board assay; format: functional
[37] = Selectivity index, ratio of MHC10 for human RBC to geometric mean of peptide MIC for gram negative bacteria; format: toxicity; settings: human red blood cells, read-out: Selectivity Index
Escherichia coli [38] = experiment: Ratio of MIC for Escherichia coli ATCC 25922 preincubated for 1 hr in presence of 10% mouse serum and measured after 18 hrs to MIC for antibacterial activity against Escherichia coli ATCC 25922 after 18 hrs; format: functional

In the case of `CCCCCCCC(=O)NC(Cc1cn(CCCC[C@H](NC(C)=O)C(=O)NCC(=O)N[C@@H](CC(C)C)C(=O)N[C@@H](CC(C)C)C(=O)N[C@H](CCCCN)C(=O)N[C@@H](CCCNC(=N)N)C(=O)N[C@H](C(=O)N[C@H](CCCCN)C(=O)N[C@H](C(=O)N[C@@H](CC(C)C)C(=O)N[C@@H](CC(C)C)C(N)=O)[C@@H](C)O)[C@@H](C)CC)nn1)C(=O)NCC(=O)N[C@@H](CC(C)C)C(=O)N[C@@H](CC(C)C)C(=O)N[C@H](CCCCN)C(=O)N[C@@H](CCCNC(=N)N)C(=O)N[C@H](C(=O)N[C@H](CCCCN)C(=O)N[C@H](C(=O)N[C@@H](CC(C)C)C(=O)N[C@@H](CC(C)C)C(N)=O)[C@@H](C)O)[C@@H](C)CC` (stereo partly specified), the MIC (Staphylococcus aureus [1]) is reported as 16 µM (≈ 43.6 µg/mL), the Activity (Escherichia coli [2]) is reported as “Dose-dependent effect” and the “fractional inhibitory concentration index (FICI)” value (Klebsiella pneumoniae [3]) is reported as 0.3125. For the same compound, the “fractional inhibitory concentration index (FICI)” value (Klebsiella pneumoniae [4]) was 0.5625, the Activity (Escherichia coli [5]) was “Active” and the Activity (Escherichia coli [6]) was “Active”. The inhibition (Escherichia coli [7]) was “Dose-dependent effect”, the MIC (Bacillus subtilis) was 2 µM (≈ 5.45 µg/mL) and the Ratio (Staphylococcus aureus [8]) was 2 - 4. For the same compound, the Ratio (Escherichia coli [9]) was 2 - 4, the Activity (Escherichia coli [10]) was “Active” and the Ratio (Escherichia coli [11]) was 4. The Activity (Escherichia coli [12]) was 32.1%, the Activity (Escherichia coli [13]) was “inactive” and the Activity (Escherichia coli [14]) was “Active”. For the same compound, the “fractional inhibitory concentration index (FICI)” value (Escherichia coli [15]) was 0.3125, the Ratio (Escherichia coli [16]) was 2 - 4 and the Activity (Escherichia coli [17]) was “Active”. The MIC (Escherichia coli [18]) was 8 µM (≈ 21.8 µg/mL), the Activity (DNA) was “Dose-dependent effect” and the inhibition (Staphylococcus aureus [19]) was “Dose-dependent effect”. The “fractional inhibitory concentration index (FICI)” value (Pseudomonas aeruginosa [20]) was 0.5625, the selectivity ratio [21] was 11.3 and the MIC (Staphylococcus aureus [22]) was 16 µM (≈ 43.6 µg/mL). The inhibition (Escherichia coli [23]) was “Active”, the Ratio (Staphylococcus aureus [24]) was 2 - 4 and the inhibition (Pseudomonas aeruginosa [25]) was “Dose-dependent effect”. The MIC (Pseudomonas aeruginosa [26]) was 8 µM (≈ 21.8 µg/mL), the Ratio (Staphylococcus aureus [27]) was 2 - 4 and the Ratio (Escherichia coli [28]) was 2 - 4. For the same compound, the MHC10 (Erythrocyte) was 128 µM, the Activity (Escherichia coli [29]) was “Active” and the Ratio (Staphylococcus aureus [30]) was 2 - 4. For the same compound, the MIC (Klebsiella pneumoniae [31]) was 16 µM (≈ 43.6 µg/mL), the MIC (Escherichia coli [32]) was 4 µM (≈ 10.9 µg/mL) and the Ratio (Escherichia coli [33]) was 2 - 4. For the same compound, the Activity (Escherichia coli [34]) was “Active”, the “fractional inhibitory concentration index (FICI)” value (Pseudomonas aeruginosa [35]) was 0.5625 and the “fractional inhibitory concentration index (FICI)” value (Escherichia coli [36]) was 0.5625. The selectivity ratio [37] was 14.2 and the Ratio (Escherichia coli [38]) was 2.
